For orientation: Kd means the constant that tells how readily two partners part at equilibrium.

The target in one experiment is T1, recombinant FKBP52 (Homo sapiens, UniProt Q02790).
T1 construct: other: QTFS, 18° C., unit not given; dissociation constant (kd) for FKBP52 by QTFS; other: QTFS; fused on or other part: probably GST at the N-terminus (pGEX-6p), as in b91 and the GST-alone control of b31
T1 sequence (Q02790 1-459): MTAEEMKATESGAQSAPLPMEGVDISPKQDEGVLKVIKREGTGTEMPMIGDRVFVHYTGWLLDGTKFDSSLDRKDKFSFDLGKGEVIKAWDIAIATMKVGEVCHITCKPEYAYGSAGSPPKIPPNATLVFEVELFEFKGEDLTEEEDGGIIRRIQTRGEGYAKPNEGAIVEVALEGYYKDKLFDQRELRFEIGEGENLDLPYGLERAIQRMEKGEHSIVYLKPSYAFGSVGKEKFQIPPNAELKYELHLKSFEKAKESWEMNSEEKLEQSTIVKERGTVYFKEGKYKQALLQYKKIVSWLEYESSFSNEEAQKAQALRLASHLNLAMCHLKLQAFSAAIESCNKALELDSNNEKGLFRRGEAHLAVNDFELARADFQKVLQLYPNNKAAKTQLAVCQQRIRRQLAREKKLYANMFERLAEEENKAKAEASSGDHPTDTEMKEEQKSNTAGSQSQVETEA
The experiment is described as follows: Tryptophan fluorescence (QTFS) binding to recombinant FKBP52.

A further experiment concerns DRG explants. The experiment is described as follows: DRG explant neurite outgrowth with anti-NGF neutralizing antibodies or MEK1 inhibitor. It counts as cell-based, C57B1/6 mice. The conditions noted are these: DRGs cultured in 1 μM GM-284 plus inhibitor. On the procedure:
(A) DRGs were prepared and cultured as above, except that either the MEK1 inhibitor, PD 098059, or NGF-neutralizing antibodies were included in cultures treated with either NGF or GM-284. Maximal response was determined to be the extent of neurite outgrowth when DRGs were cultured in NGF alone (spotted bars) or in 1 μM GM-284 (striped bars). As indicated, DRGs were treated with either NGF or GM-284, in the presence of either 0.25 mg/ml anti-NGF neutralizing antibodies or PD 098059. […] DRGs were treated with 100 ng/ml NGF or 1 μM GM-284, for 30 min or 4 h, as indicated, and the detergent lysates were prepared and immunoblotted with anti-phospho-Erk monoclonal antibody. The p42 and p44 bands are indicated by arrowheads.
Explanted DRG ganglia were dissected from P1 to P3 C57B1/6 mice, as previously described (Weinstein et al., Targeted expression of an oncogenic adaptor protein v-Crk potentiates axonal growth in dorsal root ganglia and motor neurons in vivo. Brain Res. Dev. Brain Res., 116:29-39, 1999). Briefly, DRGs were dissected and placed in ice-cold PBS containing 2% glucose, then transferred onto polyornithine/laminin-coated tissue culture plates (Biocoat, Becton Dickinson Laboratories) in DMEM-plating medium overnight. The plating medium consisted of Dulbecco's minimal essential plating medium (DMEM) supplemented with 10% fetal calf serum (FCS; Hyclone), 0.6% glucose, 2 mM glutamine, 100 U/ml penicillin, 100 μg/ml streptomycin, and 20 mM HEPES. […] For experiments employing anti-NGF neutralizing antibodies, cultures were incubated with […] anti-NGF antiserum, and replaced every two days. Cultures were kept at 37° C., in 5% CO2, for up to 1 week, at which time the extent of well-defined neurite outgrowth was assessed.
Signaling by the neurotrophins, while mediated by different cell-surface receptors, converges on the extensively studied and well-characterized MAP kinase pathway. […] Therefore, the inventors explored the possibility that GM-284 might signal through NGF directly, or through the MAP kinase cascade. […]

For another experiment, the system named is Schwann cells. The experiment is described as follows: cDNA-array analysis of Schwann cell gene expression. It counts as cell-based, Sprague-Dawley rats. On the procedure: To generate primary Schwann cells, neonatal Sprague-Dawley rats were sacrificed by decapitation, and 2-cm segments (approximately) of sciatic nerve were excised and placed in ice-cold PBS. Following removal of the epineurium, the nerves were pooled and placed in Hank's balanced salt solution containing 0.1% trypsin for 30 min at 37° C. Subsequently, partially-dissociated cells were plated onto polylysine/laminin-coated tissue culture plates, and enriched Schwann cells were further purified by the activation of anti-Thy 1.1 monoclonal antibodies and complement, in order to lyse proliferating fibroblasts (Wu and Weinstein, “Isolation and Purification of Primary Schwann Cells”, in Current Protocols in Neuroscience, Crawley et al., eds. (New York, N.Y.: John Wiley & Sons, 1999). The Schwann cells were maintained in DMEM containing 10% FCS supplemented with 50 ng/ml GGF and 2 μg/ml forskolin. However, these latter compounds were removed 48 h prior to the addition of immunophilin ligands. For the Schwann cell/PC12 co-cultures, monolayers of Schwann cells were prepared and overlaid with pCX-expressing PC12 cells, and cultures were incubated in the presence of either 100 ng/ml NGF or 1 μg/ml GM-284 for 48 h.
To test the former hypothesis, the inventors starved Schwann cells of growth factor for 48 h, then treated the cells for either 4 h or 48 h with a 1-μM dose of GM-284. RNA was harvested from the treated cells and from control (vehicle-treated) Schwann cells, and then prepared for cDNA-array analysis. Experimental details of the preparation of the RNA, and the methods for conducting the hybridization, washing, and scanning, are posted at the following http website: //sequence.aecom.yu.edu/bioinf/funcgenomic.html.
Total RNA was isolated, and prepared for cDNA microarray analysis as described (Peng et al., Microarray analysis of global changes in gene expression during cardiac myocyte differentiation. Physiol. Genomics, 9(3):145-55, 2002).

Protocol for recombinant FKBP52: Measurements were made with a Perkin-Elmer 760-40 fluorescence spectrophotometer, at an excitation wavelength of 290 nm (slit width of 2 nm) and an emission wavelength of 345 nm (slit width of 6 nm). A circulating water bath was used to maintain the sample temperature at 18° C., and a mini magnetic stirrer was used to mix the solution (0.3 mM, FKBP52 final concentration) in a 2.5-ml quartz fluorescence cuvette cell.
To obtain titration curves, immunophilin ligands from a stock solution of 0.25 mM were added at 0.2-0.5 μl increments, to achieve a final concentration of 4.0 μM in phosphate-buffered saline (PBS) containing 1 mM DTT. […] Non-linear regression curves were fitted using SigmaPlot and the following equation: F(x)=a+(X×b)/(Y+c), where X is the free ligand concentration, Y is the concentration of FKBP52, and c is the kd.

As to `CCC(C)(C)C(=O)C(=O)N1CCC[C@H]1c1nnc([C@@H]2CCCN2C(=O)C(=O)C(C)(C)CC)o1` [GM-284], the “disassociation constant (kd), binding affinity for recombinant FKBP52” value on recombinant FKBP52 (18° C., unit not given) is reported as 139±16.2. Moreover, the Kd on recombinant FKBP52 (read-out: dissociation constant (kd) for FKBP52 by QTFS) is 139 nM. The “effect of anti-NGF / MEK1 inhibition on GM-284-mediated neurite outgrowth” value in the experiment with DRG explants is “NGF- and MEK1-independent”. Moreover, in the experiment on Schwann cells (1 μM GM-284, 4 hours), the ESTs upregulated turned out to be 15; the Known genes upregulated was 11; the Selected upregulated genes result was “Cytokeratin 19 and Fibrillin 2 (fbn2) and IFNγ inducible and CD14 and Estradiol dehydrogenase”; the Total upregulated genes is 26. In the experiment on Schwann cells (1 μM GM-284, 48 hours), this compound had an ESTs upregulated of 77, a Known genes upregulated of 32 and a Total upregulated genes of 109.

Source of the values: US20040266811A1, “Methods for inducing regeneration, remyelination, and hypermyelination of nervous tissue” (priority 2002, published 2004).
